In patent US7091345B2, “Amino-substituted dihydropyrimido[4,5-D]pyrimidinone derivatives” (Hoffmann-La Roche Inc., priority 2002, dated 2006):
Where two headings read alike, the source gives them in different places.

Assays:
Lck (p56^lck) = target: T1, Lck (p56^lck) (Homo sapiens, UniProt P06239); experiment: SRC-Inhibitor-Assay, time-resolved fluorescence kinase assay (Lck); format: biochemical; conditions: ATP 5 μM, enzyme 2.5 U/ml, pre-incubation 15 min at 15° C.
T1 construct: purchased Upstate (UBI)
T1 sequence (P06239 whole entry, species assumed): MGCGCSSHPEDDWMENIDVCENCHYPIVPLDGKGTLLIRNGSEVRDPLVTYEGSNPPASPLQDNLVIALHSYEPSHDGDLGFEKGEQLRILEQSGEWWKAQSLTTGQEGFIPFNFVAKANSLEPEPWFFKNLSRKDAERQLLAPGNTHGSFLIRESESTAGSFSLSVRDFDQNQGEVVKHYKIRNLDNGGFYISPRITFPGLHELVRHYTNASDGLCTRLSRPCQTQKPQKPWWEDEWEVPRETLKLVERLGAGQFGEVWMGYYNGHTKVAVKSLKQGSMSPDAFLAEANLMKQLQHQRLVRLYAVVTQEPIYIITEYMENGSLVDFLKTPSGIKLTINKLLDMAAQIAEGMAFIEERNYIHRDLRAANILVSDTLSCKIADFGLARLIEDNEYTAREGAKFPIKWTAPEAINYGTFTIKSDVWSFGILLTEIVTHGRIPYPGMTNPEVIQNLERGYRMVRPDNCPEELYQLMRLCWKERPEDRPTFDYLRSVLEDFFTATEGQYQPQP
Protocol: (§1) The activity of the compounds according to this invention as inhibitors for the src-family tyrosine kinases was shown by using the following assay.
(§2) SRC-Inhibitor-Assay Parameters:
(§3) Assay buffer: 4 mM MgCl2 • 2 mM TCEP • 50 mM HEPES • 0,1% Tween 20 • pH 7.3
(§4) Material: Eu-labelled phosphotyrosine antibody:—for Lck Cisbio Mab PT66-K, for Src EG&G Wallac PT66 Eu-W1024 (all commercially available). Peptides: Ro: NH2-A-E-E-E-I-Y-G-E-F-E-A-K-K-K-K-CONH2, and Ja133-Ro: Ja133-G-Aminocaprylic acid-A-E-E-E-I-Y-G-E-F-E-A-K-K-K-K-CONH2, wherein Ja133 is LightCycler-Red 640-N-hydroxy succinimide ester; whereby both peptides were synthesized by an optimized solid phase peptide synthesis protocol (Merrifield, Fed. Proc. Fed. Amer. Soc. Exp. Biol. 21 (1962) 412) on a Zinsser SMP350 peptide synthesizer. Shortly, the peptide was assembled on 160 mg (22.8 μmol scale) of a Rink-Linker modified polystyrene solid phase by repeatedly conjugating an twenty fold excess of amino acids each protected by temporary piperidine labile Fmoc- and permanent acid labile tert-Bu-, BOC— and Otert-Bu-groups depending on the side chain function. The substrate sequence AEEEIYGEFEAKKKK was N-terminal additionally mounted with the spacer amino acids Aminocaprylic acid and Glycin. After cleavage of the N-terminal temporary protecting group the still attached and protected peptide was labeled with a 1.5 fold amount of LightCycler-Red 640-N-hydroxy succinimide ester (purchased by Roche Diagnostics GmbH) and triethylamine. After 3 hrs. the resin was washed with Dimethylformamide and Isopropanol until the eluates of the blue resin got colourless. […] The substrate was finally isolated by a preparative reverse phase HPLC purification. The purification yielded 12.2 mg RP-HPLC single peak pure blue material (lyophilisate). The identity was proven by MALDI mass spectroscopy [2720.0]. Enzymes: Upstate Lck (p56^lck, active), Upstate Src (p60^c-src, partially purified) were purchased from UBI. Time-resolved Fluorescence Assay: Reader: Perkin Elmer, Wallac Viktor 1420-040 multilabel counter; Liquid handling system: Beckman Coulter, Biomek 2000. ATP, Tween 20, HEPES were purchased from Roche Molecular Biochemicals, MgCl2 and MnCl2 were purchased from Merck Eurolab, TCEP was purchased from Pierce, 384 Well low volume fluorescence plates was purchased from Falcon. Assay Description:
(§5) At first the enzyme is pre-incubated for 15 min. at 15° C. in aqueous solution with corresponding amounts of inhibitors according to this invention. Then the phosphorylation reaction is started by adding a reaction mixture, containing ATP, Peptide and PT66, and subsequent shaking. The proceeding of this reaction is immediately monitored using time resolved fluorescence spectroscopy in a suitable well plate reader.
(§6) The IC50-values can be obtained from the reaction rates by using a non-linear curve fit (Excelfit).

[1] = Pharmacokinetic study in mice, plasma levels after single p.o. dose; format: in vivo; conditions: male NMRI mice, p.o. single dose 30 mg/kg as micro-suspension, dose-normalised
Protocol: A preferred pharmaceutical preparation was obtained by using the following procedure: • 1. Weigh 4.0 g glass beads in custom made tube GL 25, 4 cm (the beads fill half of the tube). • 2. Add 50 mg compound, disperse with spatulum and vortex. • 3. Add 2 ml gelatin solution (weight beads: gelatin solution=2:1) and vortex. • 4. Cap and wrap in aluminium foil for light protection. • 5. Prepare a counter balance for the mill. • 6. Mill for 4 hours, 20/s in a Retsch mill (for some substances up to 24 hours at 30/s). • 7. Extract suspension from beads with two layers of filter (100 μm) on a filter holder, coupled to a recipient vial by centrifugation at 400 g for 2 min. • 8. Move extract to measuring cylinder. • 9. Repeat washing with small volumes (here 1 ml steps) until final volume is reached or extract is clear. • 10. Fill up to final volume with gelatin and homogenise.
The above described preparation yields micro-suspensions of the compounds of formula I with particle sizes between 1 and 10 μm. The suspensions are suitable for oral applications and were used in the in vivo pharmacokinetic testings described below.
To male NMRI mice of 29–35 g body weight the compounds according to this invention were given p.o. as micro-suspensions (7.5% modified gelatine and 0.22% NaCl) in doses of 30 mg/kg (Drug concentration: 3 mg/mL. Administered volume: 10 mL/kg) and as single dose administration. Study Protocol:
Animals were fasted overnight up to 4 hrs. after administration of the compound. For each single p.o. dose the mice were allocated to 3 groups with 4 animals each. Blood samples are taken from group 1 at 0.5, 3 and 24 hours, from group 2 at 1 and 6 hours, and from group 3 at 2 and 8 hours.
Blood samples of about 200 μl were obtained by retro-orbital puncture. Plasma samples were obtained from heparinized/EDTA blood by centrifugation at room temperature, and stored frozen at −20° C. until analysis.
Plasma was deproteinated and subsequently analysed for plasma levels of the compound by a compound specific HPLC-MS method. WinNonlin™ was used to calculate the pharmacokinetic parameters.

Src (p60^c-src) = target: T2, Src (p60^c-src) (Homo sapiens, UniProt P12931); experiment: SRC-Inhibitor-Assay, time-resolved fluorescence kinase assay (Src); format: biochemical; conditions: ATP 5 μM, enzyme 2.5 U/ml, pre-incubation 15 min at 15° C.
T2 construct: purchased Upstate (UBI)
T2 sequence (P12931 whole entry): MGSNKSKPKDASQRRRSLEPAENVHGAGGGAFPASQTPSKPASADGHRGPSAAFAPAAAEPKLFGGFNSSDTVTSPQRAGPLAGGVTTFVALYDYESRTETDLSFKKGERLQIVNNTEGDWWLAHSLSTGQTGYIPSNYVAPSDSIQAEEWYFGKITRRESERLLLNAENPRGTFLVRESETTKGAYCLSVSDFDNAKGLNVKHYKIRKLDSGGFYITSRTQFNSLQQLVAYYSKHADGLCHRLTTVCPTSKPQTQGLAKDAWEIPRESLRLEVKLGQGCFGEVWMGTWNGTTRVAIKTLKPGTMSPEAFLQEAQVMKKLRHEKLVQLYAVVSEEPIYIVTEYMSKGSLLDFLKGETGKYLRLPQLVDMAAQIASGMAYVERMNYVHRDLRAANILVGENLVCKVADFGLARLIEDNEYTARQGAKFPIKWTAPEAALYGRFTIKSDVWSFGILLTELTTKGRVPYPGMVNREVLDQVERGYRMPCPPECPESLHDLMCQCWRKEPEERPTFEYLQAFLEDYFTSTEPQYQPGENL
Protocol: as §1, §2, §3, §4, §5, §6

With `CN1C(=O)N(c2ccccc2Br)Cc2cnc(Nc3ccc4c(c3)OCC(CO)O4)nc21` (stereo not drawn) [Example 1, 3-(2-bromo-phenyl)-7-(2-hydroxymethyl-2,3-dihydro-benzo[1,4]dioxin-6-ylamino)-1-methyl-3,4-dihydro-1H-pyrimido[4,5-d]pyrimidin-2-one] the IC50 (Lck (p56^lck); read-out: IC 50 (lck)) was 6.3 nM, the melting point was 156 to 158 °C and the “AUC = area under the curve from T = 0 to T = 24 hrs” value (from here on “AUC = area under the curve”) [1] was 379 (h * ng/ml))/(mg/kg). It also gave an IC50 (Src (p60^c-src); read-out: IC 50 (src)) of 7.5 nM.

For `CN1C(=O)N(c2ccccc2Br)Cc2cnc(Nc3ccc4c(c3)OC3(CCNCC3)O4)nc21` [Example 7, 3-(2-bromo-phenyl)-3,4-dihydro-7-(spiro[1,3-benzodioxolo-2,4′-piperidine]-5-yl)amino-1-methyl-pyrimido[4,5-d]pyrimidin-2(1H)-one], the IC50 (Lck (p56^lck); IC 50 (lck)) was 2.4 nM, the “AUC = area under the curve” value [1] was 813 (h * ng/ml))/(mg/kg) and the IC50 (Src (p60^c-src); IC 50 (src)) was 2 nM.

With `CN1C(=O)CSc2cc(Nc3ncc4c(n3)N(C)C(=O)N(c3c(F)cccc3Br)C4)ccc21` [Example 13-12, 3-(2-bromo-6-fluoro-phenyl)-1-methyl-7-(4-methyl-3-oxo-3,4-dihydro-2H-benzo[1,4]thiazin-7-ylamino)-3,4-dihydro-1H-pyrimido[4,5-d]pyrimidin-2-one] the IC50 (Lck (p56^lck); read-out: IC 50 (lck)) was 14 nM, the melting point was 145 to 149 °C and the “AUC = area under the curve” value [1] was 592 (h * ng/ml))/(mg/kg). For the same compound, the IC50 (Src (p60^c-src); read-out: IC 50 (src)) was 4.2 nM.

In the case of `CN1C(=O)N(c2ccccc2Br)Cc2cnc(Nc3ccc4c(c3)OCC(CN3CCCC3)O4)nc21` (stereo not drawn) [Example 13-21, 3-(2-bromo-phenyl)-1-methyl-7-(2-pyrrolidin-1-ylmethyl-2,3-dihydro-benzo[1,4]dioxin-6-ylamino)-3,4-dihydro-1H-pyrimido[4,5-d]pyrimidin-2-one], the melting point is reported as 201 to 203 °C and the “AUC = area under the curve” value [1] is reported as 120 (h * ng/ml))/(mg/kg).

In the case of `CN1CCS(=O)(=O)c2cc(Nc3ncc4c(n3)N(C)C(=O)N(c3ccccc3Br)C4)ccc21` [Example 13-26, 3-(2-bromo-phenyl)-1-methyl-7-(4-methyl-1,1-dioxo-1,2,3,4-tetrahydro-1lambda*6*-benzo[1,4]thiazin-7-ylamino)-3,4-dihydro-1H-pyrimido[4,5-d]pyrimidin-2-one], the melting point is reported as 250 to 251 °C.

For `CN1C(=O)N(c2c(F)cccc2Br)Cc2cnc(Nc3ccc4c(c3)OC3(CCNCC3)O4)nc21` [Example 13-46, 3-(2-bromo-6-fluoro-phenyl)-3,4-dihydro-7-(spiro[1,3-benzodioxolo-2,4′-piperidine]-5-yl)amino-1-methyl-pyrimido[4,5-d]pyrimidin-2(1H)-one], the IC50 (Lck (p56^lck); IC 50 (lck)) was 2.6 nM, the melting point was 146 to 153 °C and the “AUC = area under the curve” value [1] was 234 (h * ng/ml))/(mg/kg). It also gave an IC50 (Src (p60^c-src); IC 50 (src)) of 2.3 nM.
